Experimental data taken from US10562935B2, “Stapled peptides and uses thereof” (London Health Sciences Centre Research Inc., priority 2015, dated 2020).
Bridges are numbered along the chain shown (N, C = ends).

How the values were obtained:
[1] = Direct HA-binding ELISA of biotinylated peptides on HA coated plates (Example 4); parameters: key to HA binding: absorbance (color) read at 450 nm; details: for HA binding: as repeated in tables 16, 18, 20; for HA direct binding (OD): optical density, summary tables 15, 17, 19
Procedure, shortened: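 N-terminally biotinylated peptides (AEEA spacer) added to HA-coated wells at 0.8 or 0.08 μM, n=3, overnight at 4° C with shaking; biotin-labeled 7 kDa RHAMM as positive control. Bound peptide detected with streptavidin-HRP (1 hr, room temperature) and TMB substrate (5-10 min), absorbance at 450 nm.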

[2] = test system: RHAMM-overexpressing (LR21) cells; assay: Cell invasion assay (Boyden chamber with MATRIGEL, Chemicon ECM555); assay type: cell-based; details: for Invasion (% inhib.): % inhibition relative to positive control, 10 ng/mL of peptide; for inhibition of cellular invasion (in words): 10 ng/mL peptide, 20 hours, compared to 30% serum control
Procedure, shortened: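 Serum-starved RHAMM-overexpressing LR21 cells (7.5×10^4) placed in upper Boyden chamber over MATRIGEL-coated filter, with or without 10 ng/mL peptide; 30% FBS/DMEM chemoattractant below. Invaded cells quantified after 20 h by CyQUANT GR fluorescence (480/520 nm); mean ± SD, n=3, versus 30% serum control.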

[3] = Function blocking score: total percent inhibition over migration, invasion, inflammation and fibrosis assays divided by number of assays; assay type: cell-based; details: for Function blocking score (FBS): total percent inhibition for all assays tested divided by number of assays
Method: As documented in the Examples hereinabove, a variety of cyclized peptides were produced that contained the HA-binding domain 1 (HABD1), HA-binding domain 2 (HABD2), or both HABD1 and HABD2. These peptides were evaluated for helicity, direct HA binding and in a number of cell-based bioassays (effects on migration, invasion, NFkB activation, and TGFβ1 production) that are relevant to inflammation and fibrosis. The relationships amongst helicity, HA-binding, and biofunction were evaluated. Peptides were divided into three groups for this analysis: (1) peptides containing HABD1 (“HABD1”); (2) peptides containing HABD2 (“HABD2”); and peptides containing most or all of HABD1 and all of HABD2 (“HABD1+HABD2”). R^2 values were calculated to quantify the relationships between helicity, HA-binding, and biofunction were evaluated.
The results of this analysis for the HABD1 peptides are shown below in Tables 15 and 16. Table 16 provides a function blocking scores for each of the tested peptides and provides R^2 values showing the relationship between HA binding and helicity (“HA binding vs. CD”), HA binding and function-blocking score (“HA binding vs. FBS”) and helicity vs. function-blocking score (“CD vs. FBS”). The same type of summaries are provided for the HABD2 peptides in Tables 17 and 18 below, and for the HABD1+HABD2 peptides in Tables 19 and 20 below.
Function blocking scores were calculated as the total percent inhibition achieved by the peptide for all assays the peptides were tested in, divided by the number of assays. Assays included migration, invasion, inflammation and fibrosis assays. Not all peptides were tested all of the assays. All peptides were included for deriving R^2 values (Pearson's formula).

Row | HA binding [1] | HA direct binding (OD) [1] [OD] | direct HA binding (in words) ([1]; biotinylated equivalents of the named compounds, 0.8 or 0.08 μM, vs PBS only control) | Substance | Invasion (% inhib.) [2] [% inhib.] | Function blocking score (FBS) [3] | inhibition of cellular invasion (in words) [2] | function blocking (in words) [3]
1 | 0.12 | 0.12 |  | Ac-(cyclo-28-32)-NLKQKIKHVVKLKDENSQLKSEVSKLR[EQLVK]RKQN-NH2 (Ac-NLKQKIKHVVKLKDENSQLKSEVSKLREQLVKRKQN-NH2; lactam 28-32; SMILES CC[C@H](C)[C@H](NC(=O)[C@H](CCCCN)NC(=O)[C@H](CCC(N)=O)NC(=O)[C@H](CCCCN)NC(=O)[C@H](CC(C)C)NC(=O)[C@H](CC(N)=O)NC(C)=O)C(=O)N[C@@H](CCCCN)C(=O)N[C@@H](Cc1c[nH]cn1)C(=O)N[C@H](C(=O)N[C@H](C(=O)N[C@@H](CCCCN)C(=O)N[C@@H](CC(C)C)C(=O)N[C@@H](CCCCN)C(=O)N[C@@H](CC(=O)O)C(=O)N[C@@H](CCC(=O)O)C(=O)N[C@@H](CC(N)=O)C(=O)N[C@@H](CO)C(=O)N[C@@H](CCC(N)=O)C(=O)N[C@@H](CC(C)C)C(=O)N[C@@H](CCCCN)C(=O)N[C@@H](CO)C(=O)N[C@@H](CCC(=O)O)C(=O)N[C@H](C(=O)N[C@@H](CO)C(=O)N[C@@H](CCCCN)C(=O)N[C@@H](CC(C)C)C(=O)N[C@@H](CCCNC(=N)N)C(=O)N[C@H]1CCC(=O)NCCCC[C@@H](C(=O)N[C@@H](CCCNC(=N)N)C(=O)N[C@@H](CCCCN)C(=O)N[C@@H](CCC(N)=O)C(=O)N[C@@H](CC(N)=O)C(N)=O)NC(=O)[C@H](C(C)C)NC(=O)[C@H](CC(C)C)NC(=O)[C@H](CCC(N)=O)NC1=O)C(C)C)C(C)C)C(C)C) [Compound 277] | 0 | 29 |  | 
2 | 0.005 |  | bound poorly to HA | Ac-(cyclo-6,10)-VSKLR[EQLVK]RKQN-NH2 (Ac-VSKLREQLVKRKQN-NH2; lactam 6-10; SMILES CC(=O)N[C@H](C(=O)N[C@@H](CO)C(=O)N[C@@H](CCCCN)C(=O)N[C@@H](CC(C)C)C(=O)N[C@@H](CCCNC(=N)N)C(=O)N[C@H]1CCC(=O)NCCCC[C@@H](C(=O)N[C@@H](CCCNC(=N)N)C(=O)N[C@@H](CCCCN)C(=O)N[C@@H](CCC(N)=O)C(=O)N[C@@H](CC(N)=O)C(N)=O)NC(=O)[C@H](C(C)C)NC(=O)[C@H](CC(C)C)NC(=O)[C@H](CCC(N)=O)NC1=O)C(C)C) [Compound 152] |  | 47 | significantly inhibited cellular invasion | strong function blocker
3 | 0.015 | 0.015 |  | Ac-(cyclo-4,8)-VSK[ERSQK]VKRKQN-NH2 (Ac-VSKERSQKVKRKQN-NH2; lactam 4-8; SMILES CC(=O)N[C@H](C(=O)N[C@@H](CO)C(=O)N[C@@H](CCCCN)C(=O)N[C@H]1CCC(=O)NCCCC[C@@H](C(=O)N[C@H](C(=O)N[C@@H](CCCCN)C(=O)N[C@@H](CCCNC(=N)N)C(=O)N[C@@H](CCCCN)C(=O)N[C@@H](CCC(N)=O)C(=O)N[C@@H](CC(N)=O)C(N)=O)C(C)C)NC(=O)[C@H](CCC(N)=O)NC(=O)[C@H](CO)NC(=O)[C@H](CCCNC(=N)N)NC1=O)C(C)C) [Compound 150] | 79 | 27 | significantly inhibited cellular invasion | 

The remaining lines, values behind:

Row | Substance | HA binding [1] | HA direct binding (OD) [1] [OD] | direct HA binding (in words) ([1]; biotinylated equivalents of the named compounds, 0.8 or 0.08 μM, vs PBS only control) | Invasion (% inhib.) [2] [% inhib.] | Function blocking score (FBS) [3] | inhibition of cellular invasion (in words) [2] | function blocking (in words) [3]
4 | Ac-NLKQKIKHVVKLKDENSQLKSEVSKLRSQLVKRKQN-NH2 [Compound 275] | 0.11 | 0.11 |  | 0 | 12 |  | 
5 | Ac-(cyclo-7-11, cyclo-28-32)-NLKQKI[EHVVK]LKDENSQLKSEVSKLR[EQLVK]RKQN-NH2 (Ac-NLKQKIEHVVKLKDENSQLKSEVSKLREQLVKRKQN-NH2; lactam 7-11, 28-32; SMILES CC[C@H](C)[C@H](NC(=O)[C@H](CCCCN)NC(=O)[C@H](CCC(N)=O)NC(=O)[C@H](CCCCN)NC(=O)[C@H](CC(C)C)NC(=O)[C@H](CC(N)=O)NC(C)=O)C(=O)N[C@H]1CCC(=O)NCCCC[C@@H](C(=O)N[C@@H](CC(C)C)C(=O)N[C@@H](CCCCN)C(=O)N[C@@H](CC(=O)O)C(=O)N[C@@H](CCC(=O)O)C(=O)N[C@@H](CC(N)=O)C(=O)N[C@@H](CO)C(=O)N[C@@H](CCC(N)=O)C(=O)N[C@@H](CC(C)C)C(=O)N[C@@H](CCCCN)C(=O)N[C@@H](CO)C(=O)N[C@@H](CCC(=O)O)C(=O)N[C@H](C(=O)N[C@@H](CO)C(=O)N[C@@H](CCCCN)C(=O)N[C@@H](CC(C)C)C(=O)N[C@@H](CCCNC(=N)N)C(=O)N[C@H]2CCC(=O)NCCCC[C@@H](C(=O)N[C@@H](CCCNC(=N)N)C(=O)N[C@@H](CCCCN)C(=O)N[C@@H](CCC(N)=O)C(=O)N[C@@H](CC(N)=O)C(N)=O)NC(=O)[C@H](C(C)C)NC(=O)[C@H](CC(C)C)NC(=O)[C@H](CCC(N)=O)NC2=O)C(C)C)NC(=O)[C@H](C(C)C)NC(=O)[C@H](C(C)C)NC(=O)[C@H](Cc2c[nH]cn2)NC1=O) [Compound 278] | 0.125 | 0.125 |  | 0 | 12 |  | 
6 | Ac-(cyclo-10-14, cyclo-15-19)-KIKHVVKLK[EENSK][KKSEE]SKLRSQLVKRK-NH2 (Ac-KIKHVVKLKEENSKKKSEESKLRSQLVKRK-NH2; lactam 10-14, 15-19; SMILES CC[C@H](C)[C@H](NC(=O)[C@H](CCCCN)NC(C)=O)C(=O)N[C@@H](CCCCN)C(=O)N[C@@H](Cc1c[nH]cn1)C(=O)N[C@H](C(=O)N[C@H](C(=O)N[C@@H](CCCCN)C(=O)N[C@@H](CC(C)C)C(=O)N[C@@H](CCCCN)C(=O)N[C@H]1CCC(=O)NCCCC[C@@H](C(=O)N[C@H]2CCCCNC(=O)CC[C@@H](C(=O)N[C@@H](CO)C(=O)N[C@@H](CCCCN)C(=O)N[C@@H](CC(C)C)C(=O)N[C@@H](CCCNC(=N)N)C(=O)N[C@@H](CO)C(=O)N[C@@H](CCC(N)=O)C(=O)N[C@@H](CC(C)C)C(=O)N[C@H](C(=O)N[C@@H](CCCCN)C(=O)N[C@@H](CCCNC(=N)N)C(=O)N[C@@H](CCCCN)C(N)=O)C(C)C)NC(=O)[C@H](CCC(=O)O)NC(=O)[C@H](CO)NC(=O)[C@H](CCCCN)NC2=O)NC(=O)[C@H](CO)NC(=O)[C@H](CC(N)=O)NC(=O)[C@H](CCC(=O)O)NC1=O)C(C)C)C(C)C) [Compound 268] | 0.19 | 0.19 |  | 50 | 14 | significantly inhibited cellular invasion | 
7 | Ac-(cyclo-7,11)-VSKLRS[ELVKK]KQN-NH2 (Ac-VSKLRSELVKKKQN-NH2; lactam 7-11; SMILES CC(=O)N[C@H](C(=O)N[C@@H](CO)C(=O)N[C@@H](CCCCN)C(=O)N[C@@H](CC(C)C)C(=O)N[C@@H](CCCNC(=N)N)C(=O)N[C@@H](CO)C(=O)N[C@H]1CCC(=O)NCCCC[C@@H](C(=O)N[C@@H](CCCCN)C(=O)N[C@@H](CCC(N)=O)C(=O)N[C@@H](CC(N)=O)C(N)=O)NC(=O)[C@H](CCCCN)NC(=O)[C@H](C(C)C)NC(=O)[C@H](CC(C)C)NC1=O)C(C)C) [Compound 153] | 0.08 | 0.08 |  | 58 | 29 | significantly inhibited cellular invasion | 
